Data from publication PMC10914731, “Homo-BacPROTAC-induced degradation of ClpC1 as a strategy against drug-resistant mycobacteria” (Nature Communications, 2024).
Several values for one entry are separate records, joined by “and”; a condition that tells them apart may be missing. Identical values can stand only once. Entries after “also recorded” stand apart in the source; their conditions may differ. Like-named read-outs stand apart in the source and are kept apart here. *1 amine or outer side, *2 acyl side, *3 side chain or, on linkers, in order; H or OH if unused. Where a SMILES comes first, the peptide text is derived from it. Bridges are numbered along the chain shown (N, C = ends). Roman numbers before positions name the chains, in order. [ ]: non-standard residue; d: D form. X10 = CN([C@@H](Cc1cn(CC=[*:3])c2ccccc12)C(=O)[*:2])[*:1]; NMeLeu(5-OH,4R) = CN[C@@H](C[C@@H](C)CO)C(=O)O; Phe(βR-OMe) = CO[C@H](c1ccccc1)[C@H](N)C(=O)O; NMeL = CN[C@@H](CC(C)C)C(=O)O

Tests used:
[1] = assay type: in vitro ADME, Human
Description: (§1) Cryopreserved hepatocytes are incubated in an appropriate buffer system containing 50% species serum. Following an acclimation period (15–30 min) in an incubator (37 °C, 5−10% CO2, 85–95% humidity) the test compound is added to the hepatocyte suspension (pH 7.4, typical cell density of about 1 million cells/mL; final concentration of test compound is 1 µM, final DMSO concentration <0.05% v/v). The cells are incubated for up to 6 h and samples are taken at 6 different time points. Samples are then quenched with acetonitrile and pelleted by centrifugation. The remaining amount of parent compound in the supernatants is then analysed by HPLC-MS/MS. Clearance is calculated from compound half-lives using the well-stirred liver model and is converted to clearance stated as % of the liver blood flow (% Qh).

Caco-2 monolayers = experiment: in vitro
From the text: (§2) Supplementary Table 1. Structure-Activity Relationships part 1 (SPR, Caco-2) […]
(§3) SPR. Mean values ± standard deviation. Footnotes indicate the number of measurements performed for the respective compound: a) n = […]
(§4) [5] Permeability across Caco-2 monolayers in P(A−B): apical to basolateral and P(B−A): basolateral to apical direction (values reported in 10-
(§5) 6 cm s-1); efflux ratio = P(B−A)/P(A−B); Int. perm: mean value of P(A−B) and P(B−A). […] Influence of Trp-Nα methylation on P(A-B) and efflux
(§6) ratio. Bold: positive influence.

[2] = assay type: in vitro ADME, Rat
Description: as §1

[3] = Hepatocyte stability, mice; assay type: in vitro ADME; details: for Hepatocyte Mice: clearance in hepatocytes
Description: as §1

[4] = target: ClpC1 NTD protein (M. tuberculosis) (Mycobacterium tuberculosis, UniProt P9WPC9); experiment: biochemical; assay type: binding
[5] = system: non-replicating cells of Mtb H37Rv; assay type: cell-based, Mycobacterium tuberculosis; details: for Supplementary Figure 2 dose-response value, starvation-induced non-replicating H37Rv cells: three replicate columns
[6] = target: ClpC1-NTD substrate, M. tuberculosis ClpC1P1P2 (Mycobacterium tuberculosis, UniProt P9WPC9); experiment: biochemical; assay type: biochemical; details: Mtb
in vitro = details: human; for Papp A→B: apical to basolateral; for Papp B→A: basolateral to apical
From the text: as §2, §3, §4, §5, §6

[7] = target: His6-tagged ClpC1-NTD substrate, M. smegmatis ClpC1P1P2 (UniProt A0R574+P9WPC9); experiment: biochemical; assay type: biochemical; details: Msm
[8] = mean of the measurements, read-out: 1-Dmax, Mean
[9] = mean of the measurements, read-out: DC50, Mean

ClpC1 NTD protein (M. tuberculosis), sequence (P9WPC9 1-156, looked up, natural form): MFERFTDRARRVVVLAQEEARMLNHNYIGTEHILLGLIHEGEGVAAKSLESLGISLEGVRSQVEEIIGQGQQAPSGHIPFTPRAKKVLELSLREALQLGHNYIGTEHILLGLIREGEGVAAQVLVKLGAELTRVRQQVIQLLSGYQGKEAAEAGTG
His6-tagged ClpC1-NTD substrate, M. smegmatis ClpC1P1P2, sequence (P9WPC9 1-156, looked up, natural form): as above
His6-tagged ClpC1-NTD substrate, M. smegmatis ClpC1P1P2, sequence (A0R574 whole entry): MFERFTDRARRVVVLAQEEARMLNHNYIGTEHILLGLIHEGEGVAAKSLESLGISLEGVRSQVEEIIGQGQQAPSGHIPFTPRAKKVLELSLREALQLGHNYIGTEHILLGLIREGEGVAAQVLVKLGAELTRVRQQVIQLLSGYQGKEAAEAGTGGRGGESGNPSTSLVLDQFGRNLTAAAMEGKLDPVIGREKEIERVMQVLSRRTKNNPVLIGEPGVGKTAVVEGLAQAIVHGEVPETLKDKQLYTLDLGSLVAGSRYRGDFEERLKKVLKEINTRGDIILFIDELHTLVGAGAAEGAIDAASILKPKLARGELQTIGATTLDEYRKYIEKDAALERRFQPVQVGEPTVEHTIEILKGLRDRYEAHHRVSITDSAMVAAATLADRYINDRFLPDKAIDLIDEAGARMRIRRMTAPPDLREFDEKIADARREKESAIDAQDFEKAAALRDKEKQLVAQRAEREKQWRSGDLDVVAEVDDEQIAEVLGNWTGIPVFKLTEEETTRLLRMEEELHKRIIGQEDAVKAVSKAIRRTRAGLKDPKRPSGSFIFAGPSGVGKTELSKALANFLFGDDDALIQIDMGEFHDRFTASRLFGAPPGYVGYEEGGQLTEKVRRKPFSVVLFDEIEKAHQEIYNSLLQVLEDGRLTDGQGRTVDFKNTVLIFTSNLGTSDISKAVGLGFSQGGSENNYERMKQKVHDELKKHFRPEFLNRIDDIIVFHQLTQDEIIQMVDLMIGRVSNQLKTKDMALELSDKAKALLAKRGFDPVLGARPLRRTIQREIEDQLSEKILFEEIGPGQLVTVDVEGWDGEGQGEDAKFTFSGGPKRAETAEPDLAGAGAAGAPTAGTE
ClpC1-NTD substrate, M. tuberculosis ClpC1P1P2, sequence (P9WPC5 whole entry): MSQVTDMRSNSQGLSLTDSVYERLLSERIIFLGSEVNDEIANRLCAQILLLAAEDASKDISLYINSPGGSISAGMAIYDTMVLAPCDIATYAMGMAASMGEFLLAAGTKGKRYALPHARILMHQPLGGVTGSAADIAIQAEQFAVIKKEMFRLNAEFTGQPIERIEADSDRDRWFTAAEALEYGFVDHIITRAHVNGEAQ
ClpC1-NTD substrate, M. tuberculosis ClpC1P1P2, sequence (P9WPC9 whole entry): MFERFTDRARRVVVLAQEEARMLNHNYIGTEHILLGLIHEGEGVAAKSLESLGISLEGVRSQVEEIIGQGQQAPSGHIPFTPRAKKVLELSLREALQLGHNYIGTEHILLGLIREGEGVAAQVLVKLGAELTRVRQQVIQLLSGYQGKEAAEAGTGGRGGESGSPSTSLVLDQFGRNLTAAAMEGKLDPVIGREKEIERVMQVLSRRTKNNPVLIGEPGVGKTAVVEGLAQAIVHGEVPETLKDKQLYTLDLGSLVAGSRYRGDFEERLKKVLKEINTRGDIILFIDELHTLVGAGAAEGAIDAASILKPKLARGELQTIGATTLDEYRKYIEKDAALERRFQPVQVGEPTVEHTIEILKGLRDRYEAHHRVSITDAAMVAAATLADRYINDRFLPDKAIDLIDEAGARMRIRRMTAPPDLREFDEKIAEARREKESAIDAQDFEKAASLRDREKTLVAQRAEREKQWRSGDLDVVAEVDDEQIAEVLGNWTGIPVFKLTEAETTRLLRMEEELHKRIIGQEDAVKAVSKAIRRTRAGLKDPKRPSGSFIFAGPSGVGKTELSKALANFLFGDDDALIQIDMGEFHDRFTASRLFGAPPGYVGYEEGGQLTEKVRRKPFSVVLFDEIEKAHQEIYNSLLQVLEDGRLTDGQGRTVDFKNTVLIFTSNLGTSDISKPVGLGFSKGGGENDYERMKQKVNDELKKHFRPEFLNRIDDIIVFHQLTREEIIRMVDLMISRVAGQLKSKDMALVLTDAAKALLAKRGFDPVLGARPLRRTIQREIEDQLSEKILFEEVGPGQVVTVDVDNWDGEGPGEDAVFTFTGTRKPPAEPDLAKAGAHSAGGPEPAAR
ClpC1-NTD substrate, M. tuberculosis ClpC1P1P2, sequence (P9WPC3 whole entry, further chain): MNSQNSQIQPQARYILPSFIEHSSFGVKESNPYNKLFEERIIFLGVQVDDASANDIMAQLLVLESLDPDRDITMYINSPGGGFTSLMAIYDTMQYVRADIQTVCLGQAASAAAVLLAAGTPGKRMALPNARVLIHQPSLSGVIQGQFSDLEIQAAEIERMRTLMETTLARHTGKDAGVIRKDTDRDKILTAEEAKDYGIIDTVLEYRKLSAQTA

SMILES: CO[C@H](c1ccccc1)[C@@H]1NC(=O)[C@H](C)NC(=O)[C@H](C[C@@H](C)CO)N(C)C(=O)[C@H](Cc2cn(C/C=C/Cn3cc(C[C@H]4C(=O)N(C)[C@@H](C[C@@H](C)CO)C(=O)N[C@@H](C)C(=O)N[C@@H]([C@H](OC)c5ccccc5)C(=O)N[C@@H](C(C)C)C(=O)N(C)[C@@H](CC(C)C)C(=O)N[C@@H](C(C)C)C(=O)N4C)c4ccccc43)c3ccccc23)N(C)C(=O)[C@H](C(C)C)NC(=O)[C@H](CC(C)C)N(C)C(=O)[C@H](C(C)C)NC1=O [Compound 28] (I: cyclo(A[Phe(βR-OMe)]V[NMeL]V[X10][NMeLeu(5-OH,4R)]) / II: cyclo(A[Phe(βR-OMe)]V[NMeL]V[X10][NMeLeu(5-OH,4R)]); staple (E) I:6-II:6)
- Hepatocyte Stability Human QH [1]: 12.386%
- CACO permeability PEBA (Caco-2 monolayers; Caco-2): <0.00000039 cm/sec
- Caco-2 Int. Perm (Caco-2 monolayers; Caco-2): 0.66 10-6 cm s-1
- Caco-2 permeability P (A-B) (Caco-2 monolayers; Caco-2): 0.9 10-6 cm s-1
- Caco-2 permeability P (B-A) (Caco-2 monolayers; Caco-2): < 0.4 10-6 cm s-1
- Permeability Correlation P (A-B) (Caco-2 monolayers; Caco-2): 0.4
- Hepatocyte Rat [2]: 6 %Qh
- Hepatocyte Stability Rat QH [2]: 6.357%
- Hepatocyte Stability Mouse QH [3]: 15.001%
- Hepatocyte Mice [3]: 15 %Qh
- koff ClpC1-NTD [4]: 1E-3 1E-3 1/s
- koff ClpC1-NTD Mean ± SD [4]: 0.001 ± 6e-05 s⁻¹
- Kd ([4]; read-out: ClpC1-NTD KD Mean ± SD): 0.0018 ± 0.0001 µM
- Kd ([4]; read-out: KD ClpC1-NTD): 0.00173 µM and 0.00192 µM

SMILES: COc1nc2ccc(Br)cc2cc1[C@@H](c1ccccc1)[C@@](O)(CCN(C)C)c1cccc2ccccc12 [bedaquiline, reference compound]
- Supplementary Figure 2 dose-response value, starvation-induced non-replicating H37Rv cells ([5]; Conc. 0.0488281 µM): 97.9668 and 91.6487 and 83.6576
- Supplementary Figure 2 dose-response value, starvation-induced non-replicating H37Rv cells ([5]; Conc. 0.0976562 µM): 87.5536 and 80.0883 and 83.2831
- Supplementary Figure 2 dose-response value, starvation-induced non-replicating H37Rv cells ([5]; Conc. 0.195312 µM): 81.2913 and 74.9255 and 79.1163
- Supplementary Figure 2 dose-response value, starvation-induced non-replicating H37Rv cells ([5]; Conc. 0.390625 µM): 67.5239 and 65.9305 and 69.4679
- Supplementary Figure 2 dose-response value, starvation-induced non-replicating H37Rv cells ([5]; Conc. 0.78125 µM): 52.5057 and 55.0074 and 53.3502
- Supplementary Figure 2 dose-response value, starvation-induced non-replicating H37Rv cells ([5]; Conc. 1.5625 µM): 41.001 and 43.3673 and 39.2641
- Supplementary Figure 2 dose-response value, starvation-induced non-replicating H37Rv cells ([5]; Conc. 3.125 µM): 37.9814 and 32.1972 and 36.5553
- Supplementary Figure 2 dose-response value, starvation-induced non-replicating H37Rv cells ([5]; Conc. 6.25 µM): 35.7825 and 30.8268 and 30.7073
- Supplementary Figure 2 dose-response value, starvation-induced non-replicating H37Rv cells ([5]; Conc. 25 µM): 59.8834 and 41.1683 and 41.1444
- Supplementary Figure 2 dose-response value, starvation-induced non-replicating H37Rv cells ([5]; Conc. 50 µM): 53.645 and 33.4003 and 40.7939
- Supplementary Figure 2 dose-response value, starvation-induced non-replicating H37Rv cells ([5]; Conc. 100 µM): 48.6735 and 37.8778 and 36.7226
- inhibitory activity on non-growing Mtb H37Rv ([5]; starvation for three weeks, result in words): partial remaining activity; also recorded: retained a partial inhibitory activity

SMILES: CO[C@H](c1ccccc1)[C@@H]1NC(=O)[C@H](C)NC(=O)[C@H](C[C@@H](C)CO)N(C)C(=O)[C@H](Cc2cn(C)c3ccccc23)N(C)C(=O)[C@H](Cc2cn(CCOCCOCCn3cc(C[C@@H]4NC(=O)[C@H](CC(C)C)N(C)C(=O)[C@H](C(C)C)NC(=O)[C@H]([C@H](OC)c5ccccc5)NC(=O)[C@H](C)NC(=O)[C@H](C[C@@H](C)CO)N(C)C(=O)[C@H](Cc5cn(C)c6ccccc56)N(C)C4=O)nn3)nn2)NC(=O)[C@H](CC(C)C)N(C)C(=O)[C@H](C(C)C)NC1=O [Compound 21]
- 1-Dmax, single measurements ([6]; Measurement 1-4): 91.1% and 78.4%
- 1-Dmax (percent substrate remaining at maximal degradation) ([6]; Measurement 1-4, read-out: 1-Dmax, single measurements): 82.9%
- DC50 ([6]; Measurement 1-4, read-out: DC50, single measurements): 9.5 µM and 7.3 µM and 9 µM
- 1-Dmax (percent substrate remaining at maximal degradation) [6, 8]: 84%
- DC50 [6, 9]: 8.6 µM
- Papp A→B (in vitro; Caco-2, CACO permeability PEAB): < 4.9 nm/s
- Papp B→A (in vitro; Caco-2, CACO permeability PEBA): < 2.9 nm/s
- Papp A→B (in vitro; Caco-2, Caco-2 permeability P (A-B)): < 5 nm/s
- Papp B→A (in vitro; Caco-2, Caco-2 permeability P (B-A)): < 3 nm/s
- Permeability Correlation P (A-B) (Caco-2 monolayers; influence of Trp-Nα methylation on P(A-B), matched pair, listed under the methylated partner): 0.3
- Permeability Correlation Ratio (Caco-2 monolayers; influence of Trp-Nα methylation on efflux ratio, matched pair, listed under the methylated partner): 4.33
- Caco-2 Int. Perm (Caco-2 monolayers; mean value of P(A−B) and P(B−A)): 0.4 10-6 cm s-1
- Hepatocyte Rat ([2]; clearance in hepatocytes): 6 %Qh
- 1-Dmax, single measurements ([7]; Measurement 1-6): 92.1% and 86.2% and 93.5%
- 1-Dmax (percent substrate remaining at maximal degradation) ([7]; Measurement 1-6, read-out: 1-Dmax, single measurements): 95.3%
- DC50 ([7]; Measurement 1-6, read-out: DC50, single measurements): 4.5 µM and 6.1 µM and 6.8 µM and 4.7 µM
- 1-Dmax (percent substrate remaining at maximal degradation) [7, 8]: 92%
- DC50 [7, 9]: 5.5 µM
- Hepatocyte Mice [3]: 15 %Qh
- Kd ([4]; SPR (Supplementary Table 1), read-out: KD ClpC1-NTD Mean ± SD): 0.0036 ± 0.0009 µM
- koff ClpC1-NTD ([4]; SPR, single independent measurements): 0.005 s⁻¹
- Kd ([4]; SPR, single independent measurements, read-out: KD ClpC1-NTD): 0.00419 µM and 0.00293 µM
- koff ([4]; SPR, single independent measurements, read-out: koff ClpC1-NTD): 0.01 s⁻¹
